Like-named read-outs stand apart in the source and are kept apart here.
How the values were obtained:
S. aureus [1] = assay: Agar dilution MIC in absence of soap, S. aureus; assay type: cell-based; conditions: Staphylococcus aureus; read-out: Minimum growth inhibitory concentration, S. aureus
Experimental: (§1) The growth-inhibitory activity of the below-indicated compounds against some microorganisms most relevant to the human skin was determined by standard agar dilution techniques to provide the data given in following Table 1.
(§2) In Table 1, the first column gives the chemical structures of the test compounds, while the additional columns give the names of the test organisms and the minimum inhibitory concentration in parts per million (p.p.m.) of the compounds listed for 100% growth inhibition against the particular microorganisms indicated. […] For each p.p.m. of test compound, 50 p.p.m. of Ivory soap was also present in the culture medium for part A of Table 1, while in part B of Table 1, the culture medium was free of any additive other than the test compound. The data for compounds 13 through 16 of part B of Table 1 were taken from Cannon U.S. Pat. No. 3,207,660 while those for compounds 17 and 18 were taken from trade literature.

S. typhosa [2] = assay: Agar dilution MIC in absence of soap, S. typhosa; assay type: cell-based; conditions: read-out: Minimum growth inhibitory concentration, S. typhosa
Experimental: as §1, §2

P. aeruginosa [3] = assay: Agar dilution MIC in absence of soap, P. aeruginosa; assay type: cell-based; conditions: Pseudomonas aeruginosa; read-out: Minimum growth inhibitory concentration, P. aeruginosa
Experimental: as §1, §2

S. aureus [4] = conditions: absence of soap; 13-16 from Cannon U.S. Pat. No. 3,207,660, 17-18 from trade literature; cited from earlier work
P. aeruginosa [5] = conditions: absence of soap, 13-16 from Cannon U.S. Pat. No. 3,207,660, 17-18 from trade literature, cited from earlier work
mice = conditions: 12-15 from U.S. Pat. No. 3,207,660, 17, 18 from trade literature, cited from earlier work
S. typhosa [6] = conditions: absence of soap; 17-18 from trade literature; cited from earlier work

| SMILES | MIC (S. aureus [1]) [µg/mL] | MIC (S. typhosa [2]) [µg/mL] | MIC (P. aeruginosa [3]) [µg/mL] | Minimum growth inhibitory concentration, S. aureus (S. aureus [4]) [ppm] | Minimum growth inhibitory concentration, P. aeruginosa (P. aeruginosa [5]) | Minimum growth inhibitory concentration, P. aeruginosa (P. aeruginosa [5]; listed as Compound 18 (Table 1)) [ppm] | Oral LD50 (mice) (mice) | Oral LD50 (mice) (mice; listed as Compound 17 (Table 2)) [mg/kg] | Minimum growth inhibitory concentration, S. typhosa (S. typhosa [6]) [ppm] |
| --- | --- | --- | --- | --- | --- | --- | --- | --- | --- |
| COc1ccc([I+]c2cccc(C(F)(F)F)c2)cc1 [Compound 11 (Table 1)] | 10 | 100 | 500 |  |  |  |  |  |  |
| FC(F)(F)c1cccc([I+]c2cccs2)c1 [Compound 12 (Table 1)] | < 1 | 10 | 50 |  |  |  |  |  |  |
| Oc1cc(Cl)ccc1Oc1ccc(Cl)cc1Cl [Irgasan] |  |  |  | 1 | more than 300 ppm | > 300 | 4,000 mg/kg | 4000 | 1 |
